Test results reported in the supplement of paper PMC10307832.

Tests used:
Test in all cases: relative viability (nuclei count vs DMSO), 5 days (fraction); higher = more cells survive
NCI-H1666 = tested on: NCI-H1666
Method in brief: (§1)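 Lung cancer cell lines in 1536-well plates got either a single drug or a fixed anchor-drug dose together with five library-drug doses (not always all listed) in √10 steps, by pin tool, on the day after seeding. Nuclei were counted after 5 days, and relative viability is the treated-to-vehicle ratio of nuclei counts. Values are medians of duplicate plates.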

NCI-H2347 = tested on: NCI-H2347
Method in brief: as §1

ABC-1 = tested on: ABC-1
Method in brief: as §1

SW 1573 = tested on: SW 1573
Method in brief: as §1

LK-2 = tested on: LK-2
Method in brief: as §1

NCI-H1355 = tested on: NCI-H1355
Method in brief: as §1

NCI-H727 = tested on: NCI-H727
Method in brief: as §1

NCI-H1755 = tested on: NCI-H1755
Method in brief: as §1

HCC-44 = tested on: HCC-44
Method in brief: as §1

NCI-H1650 = tested on: NCI-H1650
Method in brief: as §1

NCI-H358 = tested on: NCI-H358
Method in brief: as §1

201T = tested on: 201T
Method in brief: as §1

NCI-H838 = tested on: NCI-H838
Method in brief: as §1

UMC-11 = tested on: UMC-11
Method in brief: as §1

NCI-H2228 = tested on: NCI-H2228
Method in brief: as §1

BEN = tested on: BEN
Method in brief: as §1

NCI-H1734 = tested on: NCI-H1734
Method in brief: as §1

NCI-H520 = tested on: NCI-H520
Method in brief: as §1

LOU-NH91 = tested on: LOU-NH91
Method in brief: as §1

NCI-H2009 = tested on: NCI-H2009
Method in brief: as §1

NCI-H2405 = tested on: NCI-H2405
Method in brief: as §1

`Cc1cnc(-c2cnc(NCCNc3ccc(C#N)cn3)nc2-c2ccc(Cl)cc2Cl)[nH]1` + CCNC(=O)c1noc(-c2cc(C(C)C)c(O)cc2O)c1-c1ccc(CN2CCOCC2)cc1 [Luminespib] (partner 0.01 µM) was tested, and the relative viability (NCI-H1666; first compound 0.08 µM) was 1.04, the relative viability (NCI-H1666; first compound 0.253 µM) was 1.04 and the relative viability (NCI-H1666; first compound 0.8 µM) was 1.04. It also gave a relative viability (NCI-H1666; first compound 2.53 µM) of 1.08, a relative viability (NCI-H2347; first compound 0.08 µM) of 0.267 and a relative viability (NCI-H2347; first compound 0.253 µM) of 0.266. The relative viability (NCI-H2347; first compound 0.8 µM) was 0.346, the relative viability (NCI-H2347; first compound 2.53 µM) was 0.518 and the relative viability (ABC-1; first compound 0.08 µM) was 0.591. The relative viability (ABC-1; first compound 2.53 µM) was 0.82, the relative viability (SW 1573; first compound 0.08 µM) was 0.162 and the relative viability (SW 1573; first compound 0.253 µM) was 0.277. For the same molecule, the relative viability (SW 1573; first compound 0.8 µM) was 0.344, the relative viability (SW 1573; first compound 2.53 µM) was 0.234 and the relative viability (LK-2; first compound 0.08 µM) was 0.197. For the same molecule, the relative viability (LK-2; first compound 0.253 µM) was 0.227, the relative viability (LK-2; first compound 0.8 µM) was 0.239 and the relative viability (LK-2; first compound 2.53 µM) was 0.205. The relative viability (NCI-H1355; first compound 0.08 µM) was 0.704, the relative viability (NCI-H1355; first compound 0.253 µM) was 0.698 and the relative viability (NCI-H1355; first compound 0.8 µM) was 0.677. For the same molecule, the relative viability (NCI-H1355; first compound 2.53 µM) was 0.744, the relative viability (NCI-H727; first compound 0.08 µM) was 0.272 and the relative viability (NCI-H727; first compound 0.253 µM) was 0.345. The relative viability (NCI-H727; first compound 0.8 µM) was 0.362, the relative viability (NCI-H727; first compound 2.53 µM) was 0.337 and the relative viability (NCI-H1755; first compound 0.08 µM) was 0.614. The relative viability (NCI-H1755; first compound 0.253 µM) was 0.327, the relative viability (NCI-H1755; first compound 0.8 µM) was 0.59 and the relative viability (NCI-H1755; first compound 2.53 µM) was 0.385. For the same molecule, the relative viability (HCC-44; first compound 0.08 µM) was 1.21, the relative viability (HCC-44; first compound 0.253 µM) was 0.968 and the relative viability (HCC-44; first compound 0.8 µM) was 1.14. The relative viability (HCC-44; first compound 2.53 µM) was 1.24, the relative viability (NCI-H1650; first compound 0.08 µM) was 0.195 and the relative viability (NCI-H1650; first compound 0.253 µM) was 0.207. For the same molecule, the relative viability (NCI-H1650; first compound 0.8 µM) was 0.164, the relative viability (NCI-H1650; first compound 2.53 µM) was 0.193 and the relative viability (NCI-H358; first compound 0.08 µM) was 0.24. It also gave a relative viability (NCI-H358; first compound 0.253 µM) of 0.317, a relative viability (NCI-H358; first compound 0.8 µM) of 0.283 and a relative viability (NCI-H358; first compound 2.53 µM) of 0.0322. It also gave a relative viability (201T; first compound 0.08 µM) of 1.11, a relative viability (201T; first compound 0.8 µM) of 1.06 and a relative viability (201T; first compound 2.53 µM) of 1.01. The relative viability (NCI-H838; first compound 0.08 µM) was 0.326, the relative viability (NCI-H838; first compound 0.253 µM) was 0.287 and the relative viability (NCI-H838; first compound 0.8 µM) was 0.333. For the same molecule, the relative viability (NCI-H838; first compound 2.53 µM) was 0.301, the relative viability (UMC-11; first compound 0.08 µM) was 1.02 and the relative viability (UMC-11; first compound 0.253 µM) was 0.934. The relative viability (UMC-11; first compound 0.8 µM) was 1.03, the relative viability (UMC-11; first compound 2.53 µM) was 0.995 and the relative viability (NCI-H2228; first compound 0.08 µM) was 0.131. The relative viability (NCI-H2228; first compound 0.253 µM) was 0.156, the relative viability (NCI-H2228; first compound 0.8 µM) was 0.133 and the relative viability (NCI-H2228; first compound 2.53 µM) was 0.159. The relative viability (BEN; first compound 0.08 µM) was 0.338, the relative viability (BEN; first compound 0.253 µM) was 0.612 and the relative viability (BEN; first compound 0.8 µM) was 0.702. For the same molecule, the relative viability (BEN; first compound 2.53 µM) was 0.501, the relative viability (NCI-H1734; first compound 0.08 µM) was 0.208 and the relative viability (NCI-H1734; first compound 0.253 µM) was 0.199. The relative viability (NCI-H1734; first compound 0.8 µM) was 0.144, the relative viability (NCI-H1734; first compound 2.53 µM) was 0.23 and the relative viability (NCI-H520; first compound 0.08 µM) was 0.257. For the same molecule, the relative viability (NCI-H520; first compound 0.253 µM) was 0.203, the relative viability (NCI-H520; first compound 0.8 µM) was 0.227 and the relative viability (NCI-H520; first compound 2.53 µM) was 0.208. It also gave a relative viability (LOU-NH91; first compound 0.08 µM) of 0.367, a relative viability (LOU-NH91; first compound 0.253 µM) of 0.369 and a relative viability (LOU-NH91; first compound 0.8 µM) of 0.322. It also gave a relative viability (LOU-NH91; first compound 2.53 µM) of 0.376, a relative viability (NCI-H2009; first compound 0.08 µM) of 1.03 and a relative viability (NCI-H2009; first compound 0.253 µM) of 0.984. The relative viability (NCI-H2009; first compound 0.8 µM) was 0.995, the relative viability (NCI-H2009; first compound 2.53 µM) was 0.975 and the relative viability (NCI-H2405; first compound 0.08 µM) was 0.763. The relative viability (NCI-H2405; first compound 0.253 µM) was 0.552, the relative viability (NCI-H2405; first compound 0.8 µM) was 0.822 and the relative viability (NCI-H2405; first compound 2.53 µM) was 0.574.
